{"source": "patent US9950026B2", "about": "“Methods for reducing oxidative damage” (Cornell Research Foundation, Inc., priority 2004, dated 2018)", "key": {"[1]": {"tested_on": "SH-SY5Y cells", "assay": "Cell viability, MTS assay, cells treated with tBHP", "format": "cell-based, human", "details": "t-BHP 0.05-0.1 mM, 24 h", "description": "Neuronal N2A and SH-SY5Y cells were plated in 96-well plate at a density of 1×10^4/well and allowed to grow for 2 days before treatment with t-butyl hydroperoxide (tBHP) (0.05-0.1 mM) with or without SS-31 (10^−12 M to 10^−9 M for 24 h. Cell death was assessed by a cell proliferation assay (MTS assay, Promega, Madison, Wis.)."}, "[2]": {"tested_on": "Mouse pancreatic islet cells", "assay": "tBHP oxidative damage in islet cells (TMRM, DCF)", "format": "cell-based", "details": "25 μM tBHP, 1 nM SS-31", "description": "Mouse pancreatic islet cells were untreated (a), or treated with 25 μM tBHP without or with 1 nM SS-31 (c). Mitochondrial potential was measured by TMRM (red) and reactive oxygen species were measured by DCF (green) using confocal microscopy."}, "[3]": {"tested_on": "G93A-SOD transfected murine neuroblastoma (N2A) cells", "assay": "H2O2-induced cell death (LDH release)", "format": "cell-based", "details": "SS-31 between 1 and 100 μM added 1 h after exposure to H2O2", "description": "FIG. 24. Increased hydrogen peroxide (H2O2) sensitivity of G93A-SOD transfected murine neuroblastoma (N2A) cells as compared to wildtype SOD-transfected N2A cells after addition of 0.5 or 1 mM H2O2 for 1 h. Cell death was quantified by measurement of the percentage of H2O2-induced LDH release of total cellular LDH-content. […] Values are means+S.D., n=4-5, *p<0.1, **p<0.05, Student's t-test."}, "[4]": {"tested_on": "G93A transgenic familial ALS mice", "assay": "Disease onset, survival and tolerability in ALS mice", "format": "in vivo", "details": "5 mg/kg SS-31 i.p.", "description": "FIG. 25A-25B. (A) Cumulative probability of disease on set and survival with SS-31 5 mg/kg/day treatment (n=14) […] as compared to vehicle treatment (n=14). […] (B) Mean survival (days) of G93A mice treated with vehicle or SS-31 5 mg/kg/day. (Data are mean±SD, p<0.05, Student's t-test).\nTreatment with 5 mg-kg SS-31 i.p. started at 30 days of age of G93A transgenic familial amyotrophic lateral sclerosis (ALS) mice (high copy number, B6SJL-Tg(SOD1-G93A)1Gur/J) led to a significant delay of disease onset as defined by the appearance of tremor and hind limb clasping as well as deterioration in the rotarod performance, the average age of onset in the control group was 88+7 days, in the SS-31 treated group 95+6 days (p<0.05, Logrank (Mantel-Cox)). […] There was a gender effect on survival which has been observed in previous studies with this model as well in G93A mice in this background with males having a shorter life span than females (average of 5 days)."}, "[5]": {"tested_on": "C57BL/6 mice subjected to 30 min MCAO", "assay": "Redox status (cysteine, ascorbate, GSH) after transient MCAO", "format": "in vivo", "details": "2 mg/kg i.p. upon reperfusion, 6 h", "description": "FIG. 31A-31C. Effect of SS-31 peptide on ischemia-induced changes in cysteine (A) ascorbate (B), and GSH (C) levels, C57BL/6 mice were subjected to 30 min MCAO and treated with vehicle, SS-31 (2 mg/kg body weight) or SS-20 (2 mg/kg body eight) peptide immediately after reperfusion. Mice were sacrificed at 6 h postischemia. Values are expressed as percent increase (cysteine) or percent depletion (ascorbate and GSH) in ipsilateral side versus contralateral side. Error bars indicate SEM (n=4-6 animals per group).\nTo test the efficacy of SS-3 1 on redox status, cysteine, ascorbate and GSH levels were determined 6 h after 30 min transient middle cerebral artery occlusion (MCAO) in mice treated intraperitoneally (i.p.) with saline (vehicle), SS-31 (2 mg/kg) or SS-20 (2 mg/kg) upon reperfusion. Values in FIG. 31 are expressed as percent increase (cysteine) and percent depletion (ascorbate and GSH) in the ipsilateral side compared to the contralateral side. Absolute values were originally expressed as nmoles/mg protein as shown in FIG. 30 and converted to percent difference. The percent ipsilateral cysteine increase was similar among vehicle-, SS-31-, and SS-20-treated groups (FIG. 31A)."}, "[6]": {"tested_on": "DBA/2 islet cells", "assay": "Islet cell uptake of [3H]SS-31", "format": "in vitro ADME, mouse", "description": "(§1) FIG. 33A-33B. SS peptides penetrate islet cells, co-localize with mitochondria and preserve islet mitochondrial membrane potential. (A) Islet cell uptake of SS-31. DBA/2 islet cells were incubated with 1 nM of tritium labeled SS-31 and 1 μM unlabeled SS-31 at 37° C. for 1 h. Following incubation, radioactivity was measured in the medium and in cell lysates and the radioactive counts in the medium were subtracted from radioactive counts in the cell lysate and normalized to protein content. In four consecutive experiments, the mean±(SE) [^3H]SS-31 uptake was 70.2+/31 10.3 pmol/mg, of proteins (B)(i-iv) SS-31 preserves islet mitochondrial potential. DBA/2 mice were treated with SS-31 (3 mg/kg s.c. BID) or vehicle control 24 hours prior to pancreas harvest for islet isolation. SS-31 treated groups had 1 nM SS-31 added to the islet isolation reagents. Following isolation, TMRM uptake was evaluated using confocal laser scanning microscopy.\nIslets are tightly adherent cell clusters and entry of peptides/proteins may be impaired given their architecture."}, "[7]": {"tested_on": "DBA/2 mice islets", "assay": "Islets isolated from donor mice pre-treated with SS-31 (TMRM, yield, Annexin V/PI flow cytometry)", "format": "in vivo", "description": "as §1\nFIG. 34A-34D. SS-31 reduces islet cell apoptosis. DBA/2 mice were pre-treated (24 and 12-hours hours prior to pancreas harvest and islet isolation) with SS-31 (3 mg/kg, s.c., BID) or vehicle control. SS-31 (1 nM was added to reagents used for the isolation of islets from SS-31-treated mice. The islets were dissociated in to single cells with trypsin/EDTA and were stained with Annexin V-FITC (AnV) and propidium iodide (PI) and analyzed with the use of dual parameter low cytometry. (A) Percentage of cell undergoing early apoptosis (AnV+cells); P=0.03. (B) Percentage of cells undergoing late apoptosis/early necrosis (AnV+/PI+cells); P=0.03. (C) Percentage of necrotic cells (PI+cells); P=1.0 (D) Percentage of viable cells (AnV-/PI-cells); P=0.03. Data from individual pancreatic islet isolations and mean±SE are shown, N=number of separate islet isolations. Two-tailed P-values were calculated using Mann-Whitney t-test.\nMitochondrial depolarization and the release of cytochrome c into the cytoplasm are critical antecedent events to cell death. TMRM, a fluorescent cationic indicator is taken up into mitochondria in a potential dependent manner.\nTo investigate whether the SS-31 optimizes islet isolation and results in increased islet yield, islet donor mice were pre-treated with SS-31."}}, "note": "Where a SMILES comes first, the peptide text is derived from it. [ ]: non-standard residue; d: D form. Dmt = Cc1cc(O)cc(C)c1C[C@H](N)C(=O)O", "data": [{"smiles": "Cc1cc(O)cc(C)c1C[C@H](NC(=O)[C@H](N)CCCNC(=N)N)C(=O)N[C@@H](CCCCN)C(=O)N[C@@H](Cc1ccccc1)C(N)=O", "note": "[SS-31, D-Arg-2′6′-Dmt-Lys-Phe-NH2] (H-[dR][Dmt]KF-NH2; N-terminus assumed)", "values": [{"measurement": "concentration achieving complete protection against t-BHP", "setting": "[1]", "value": 1, "unit": "nM"}, {"measurement": "t-BHP-induced cytotoxicity", "setting": "[1]; concurrent treatment", "value": "dose-dependent reduction"}, {"measurement": "oxidative damage caused by tBHP", "setting": "[2]", "value": "reduces oxidative damage"}, {"measurement": "H2O2-induced cell death", "setting": "[3]", "value": "significantly reduced"}, {"measurement": "average age of onset", "setting": "[4]", "value": "95+6 days"}, {"measurement": "survival", "setting": "[4]", "value": "142+12 day"}, {"measurement": "tolerability / side effects", "setting": "[4]", "value": "well tolerated and no side effects were observed"}, {"measurement": "increase in survival", "setting": "[4]; vs control", "value": 9, "unit": "%"}, {"measurement": "ischemia-induced GSH depletion in the cortex", "setting": "[5]", "value": "significantly attenuated"}, {"measurement": "percent ipsilateral cysteine increase", "setting": "[5]", "value": "similar"}, {"measurement": "percent ipsilateral depletion of ascorbate", "setting": "[5]", "value": "marginally but not significantly affected"}, {"measurement": "penetration of intact mouse islets", "setting": "[6]", "value": "readily penetrates"}, {"measurement": "uptake of TMRM by islets (mitochondrial potential)", "setting": "[7]; SS-31 3 mg/kg s.c. BID to donor, 1 nM in isolation reagents", "value": "greater uptake of TMRM"}, {"measurement": "islet yield, mean±(SE)", "setting": "[7]; donor mice pre-treated with SS-31", "value": "291±60", "unit": "islets per pancreas"}, {"measurement": "islet cell viability (Annexin V-/PI- cells)", "setting": "[7]; donor mice treated with SS-31", "value": "62±3.5", "unit": "%"}, {"measurement": "late apoptosis/early necrosis (Annexin V+/PI+ cells)", "setting": "[7]; donor mice treated with SS-31", "value": "12.6±1.8", "unit": "%"}, {"measurement": "percentage of early apoptotic cells (Annexin V alone positive cells)", "setting": "[7]; donor mice treated with SS-31", "value": "5.5±1.0", "unit": "%"}, {"measurement": "percentage of necrotic cells (PI+ cells)", "setting": "[7]; donor mice treated with SS-31", "value": "did not reduce"}]}]}
